# Experimental data reported in ChEMBL document CHEMBL3870328, “Synthesis of novel Ral inhibitors: An in vitro and in vivo study” (Bioorg Med Chem Lett, 2016).
# How the values were obtained:
# [1] = Drug uptake in brain of mouse xenografted with human NCI-H2122 cells at 50 mg/kg, ip after 3 hrs by LC-MS/MS analysis; format: ADME, organism-based; settings: read-out: Drug uptake
# [2] = Drug uptake in kidney of mouse xenografted with human NCI-H2122 cells at 50 mg/kg, ip after 3 hrs by LC-MS/MS analysis; format: ADME, organism-based; settings: read-out: Drug uptake
# [3] = Drug uptake in liver of mouse xenografted with human NCI-H2122 cells at 50 mg/kg, ip after 3 hrs by LC-MS/MS analysis; format: ADME, organism-based; settings: read-out: Drug uptake
# [4] = Drug uptake in lungs of mouse xenografted with human NCI-H2122 cells at 50 mg/kg, ip after 3 hrs by LC-MS/MS analysis; format: ADME, organism-based; settings: lung, read-out: Drug uptake
# [5] = Drug uptake in tumor of mouse xenografted with human NCI-H2122 cells at 50 mg/kg, ip after 3 hrs by LC-MS/MS analysis; format: ADME, organism-based, Neoplasm; settings: read-out: Drug uptake
# [6] = Plasma concentration in mouse xenografted with human NCI-H2122 cells at 50 mg/kg, ip after 3 hrs by LC-MS/MS analysis; format: ADME, organism-based
# [7] = Drug metabolism in CD1 mouse liver microsomes assessed as CYP450-mediated mono-oxidation by measuring 6-amino-4-(2,5-dihydroxyphenyl)-3-(naphthalen-2-yl)-1,4-dihydropyrano[2,3-c]pyrazole-5-carbonitrile metabolite formation at 16.7 uM after 10 mins in presence of NADPH by LC-MS/MS analysis; format: ADME
# [8] = Drug metabolism in CD1 mouse liver microsomes assessed as CYP450-mediated mono-oxidation by measuring M1 metabolite formation at 16.7 uM after 10 mins in presence of NADPH by LC-MS/MS analysis; format: ADME
# [9] = Drug metabolism in CD1 mouse liver microsomes assessed as CYP450-mediated mono-oxidation by measuring M3 metabolite formation at 16.7 uM after 10 mins in presence of NADPH by LC-MS/MS analysis; format: ADME
# [10] = Drug metabolism in mouse xenografted with human NCI-H2122 cells assessed as M1 metabolite formation in plasma at 50 mg/kg, ip after 3 hrs by LC-MS/MS analysis; format: ADME, organism-based; settings: in vivo
# [11] = Drug metabolism in mouse xenografted with human NCI-H2122 cells assessed as M1 metabolite formation in kidney at 50 mg/kg, ip after 3 hrs by LC-MS/MS analysis; format: ADME, organism-based; settings: in vivo
# [12] = Drug metabolism in mouse xenografted with human NCI-H2122 cells assessed as M1 metabolite formation in liver at 50 mg/kg, ip after 3 hrs by LC-MS/MS analysis; format: ADME, organism-based; settings: in vivo
# [13] = Drug metabolism in mouse xenografted with human NCI-H2122 cells assessed as M1 metabolite formation in lungs at 50 mg/kg, ip after 3 hrs by LC-MS/MS analysis; format: ADME, organism-based, Lung; settings: in vivo
# [14] = Drug metabolism in mouse xenografted with human NCI-H2122 cells assessed as M1 metabolite formation in heart at 50 mg/kg, ip after 3 hrs by LC-MS/MS analysis; format: ADME, organism-based; settings: in vivo
# [15] = Drug metabolism in mouse xenografted with human NCI-H2122 cells assessed as 6-amino-4-(2,5-dihydroxyphenyl)-3-(naphthalen-2-yl)-1,4-dihydropyrano[2,3-c]pyrazole-5-carbonitrile metabolite formation in tumor at 50 mg/kg, ip after 3 hrs by LC-MS/MS analysis; format: ADME, organism-based, Neoplasm; settings: in vivo
# [16] = Drug metabolism in mouse xenografted with human NCI-H2122 cells assessed as 6-amino-4-(2,5-dihydroxyphenyl)-3-(naphthalen-2-yl)-1,4-dihydropyrano[2,3-c]pyrazole-5-carbonitrile metabolite formation in kidney at 50 mg/kg, ip after 3 hrs by LC-MS/MS analysis; format: ADME, organism-based; settings: in vivo
# [17] = Drug metabolism in mouse xenografted with human NCI-H2122 cells assessed as 6-amino-4-(2,5-dihydroxyphenyl)-3-(naphthalen-2-yl)-1,4-dihydropyrano[2,3-c]pyrazole-5-carbonitrile metabolite formation in liver at 50 mg/kg, ip after 3 hrs by LC-MS/MS analysis; format: ADME, organism-based; settings: in vivo
# [18] = Drug metabolism in mouse xenografted with human NCI-H2122 cells assessed as 6-amino-4-(2,5-dihydroxyphenyl)-3-(naphthalen-2-yl)-1,4-dihydropyrano[2,3-c]pyrazole-5-carbonitrile metabolite formation in lungs at 50 mg/kg, ip after 3 hrs by LC-MS/MS analysis; format: ADME, organism-based, Lung; settings: in vivo
# [19] = Drug metabolism in mouse xenografted with human NCI-H2122 cells assessed as 6-amino-4-(2,5-dihydroxyphenyl)-3-(naphthalen-2-yl)-1,4-dihydropyrano[2,3-c]pyrazole-5-carbonitrile metabolite formation in heart at 50 mg/kg, ip after 3 hrs by LC-MS/MS analysis; format: ADME, organism-based; settings: in vivo, BLD = below limit of detection
# [20] = Drug metabolism in mouse xenografted with human NCI-H2122 cells assessed as M3 metabolite formation in plasma at 50 mg/kg, ip after 3 hrs by LC-MS/MS analysis; format: ADME, organism-based; settings: in vivo
# [21] = Drug metabolism in mouse xenografted with human NCI-H2122 cells assessed as M3 metabolite formation in kidney at 50 mg/kg, ip after 3 hrs by LC-MS/MS analysis; format: ADME, organism-based; settings: in vivo
# [22] = Drug metabolism in mouse xenografted with human NCI-H2122 cells assessed as M3 metabolite formation in liver at 50 mg/kg, ip after 3 hrs by LC-MS/MS analysis; format: ADME, organism-based; settings: in vivo
# [23] = Drug metabolism in mouse xenografted with human NCI-H2122 cells assessed as M3 metabolite formation in lungs at 50 mg/kg, ip after 3 hrs by LC-MS/MS analysis; format: ADME, organism-based, Lung; settings: in vivo
# [24] = Drug metabolism in mouse xenografted with human NCI-H2122 cells assessed as M3 metabolite formation in heart at 50 mg/kg, ip after 3 hrs by LC-MS/MS analysis; format: ADME, organism-based; settings: in vivo
# [25] = Drug metabolism in mouse xenografted with human NCI-H2122 cells assessed as M4 metabolite formation in plasma at 50 mg/kg, ip after 3 hrs by LC-MS/MS analysis; format: ADME, organism-based; settings: in vivo
# [26] = Drug metabolism in mouse xenografted with human NCI-H2122 cells assessed as M4 metabolite formation in tumor at 50 mg/kg, ip after 3 hrs by LC-MS/MS analysis; format: ADME, organism-based, Neoplasm; settings: in vivo
# [27] = Drug metabolism in mouse xenografted with human NCI-H2122 cells assessed as M4 metabolite formation in kidney at 50 mg/kg, ip after 3 hrs by LC-MS/MS analysis; format: ADME, organism-based; settings: in vivo
# [28] = Drug metabolism in mouse xenografted with human NCI-H2122 cells assessed as M4 metabolite formation in liver at 50 mg/kg, ip after 3 hrs by LC-MS/MS analysis; format: ADME, organism-based; settings: in vivo
# [29] = Drug metabolism in mouse xenografted with human NCI-H2122 cells assessed as M4 metabolite formation in lungs at 50 mg/kg, ip after 3 hrs by LC-MS/MS analysis; format: ADME, organism-based, Lung; settings: in vivo
# [30] = Drug metabolism in mouse xenografted with human NCI-H2122 cells assessed as M5 metabolite formation in plasma at 50 mg/kg, ip after 3 hrs by LC-MS/MS analysis; format: ADME, organism-based; settings: in vivo
# [31] = Drug metabolism in mouse xenografted with human NCI-H2122 cells assessed as M5 metabolite formation in tumor at 50 mg/kg, ip after 3 hrs by LC-MS/MS analysis; format: ADME, organism-based, Neoplasm; settings: in vivo
# [32] = Drug metabolism in mouse xenografted with human NCI-H2122 cells assessed as M5 metabolite formation in kidney at 50 mg/kg, ip after 3 hrs by LC-MS/MS analysis; format: ADME, organism-based; settings: in vivo
compound,measurement,setting,value
COc1ccc(OC)c(C2C(C#N)=C(N)Oc3[nH]nc(-c4ccc5ccccc5c4)c32)c1 (configuration not stated),concentration at 3 h,[1],570 ng/g
same,concentration at 3 h,[2],24600 ng/g
same,concentration at 3 h,[3],39700 ng/g
same,concentration at 3 h,[4],21600 ng/g
same,concentration at 3 h,[5],5830 ng/g
same,concentration at 3 h,[6],3910 ng/mL
same,Drug metabolism,[7],Metabolite_Detected
same,Drug metabolism,[8],Metabolite_Detected
same,Drug metabolism,[9],Metabolite_Detected
same,Drug metabolism,[10],7.7 ng/mL
same,Drug metabolism,[11],135.2 ng/g
same,Drug metabolism,[12],557.4 ng/g
same,Drug metabolism,[13],18.2 ng/g
same,Drug metabolism,[14],12.4 ng/g
same,Drug metabolism,[15],0.6 ng/g
same,Drug metabolism,[16],3.7 ng/g
same,Drug metabolism,[17],160.8 ng/g
same,Drug metabolism,[18],1.1 ng/g
same,Drug metabolism,[19],Bld
same,Drug metabolism,[20],14.2 ng/mL
same,Drug metabolism,[21],4.1 ng/g
same,Drug metabolism,[22],49.6 ng/g
same,Drug metabolism,[23],2 ng/g
same,Drug metabolism,[24],1.1 ng/g
same,Drug metabolism,[25],37.8 ng/mL
same,Drug metabolism,[26],10.2 ng/g
same,Drug metabolism,[27],260 ng/g
same,Drug metabolism,[28],1391.3 ng/g
same,Drug metabolism,[29],46.8 ng/g
same,Drug metabolism,[30],2.7 ng/mL
same,Drug metabolism,[31],1.4 ng/g
same,Drug metabolism,[32],20.9 ng/g
